Target: PKCδ (Homo sapiens, UniProt Q05655)
Assay: Omnia fluorescent
Type: biochemical

Sequence of PKCδ (Q05655 whole entry): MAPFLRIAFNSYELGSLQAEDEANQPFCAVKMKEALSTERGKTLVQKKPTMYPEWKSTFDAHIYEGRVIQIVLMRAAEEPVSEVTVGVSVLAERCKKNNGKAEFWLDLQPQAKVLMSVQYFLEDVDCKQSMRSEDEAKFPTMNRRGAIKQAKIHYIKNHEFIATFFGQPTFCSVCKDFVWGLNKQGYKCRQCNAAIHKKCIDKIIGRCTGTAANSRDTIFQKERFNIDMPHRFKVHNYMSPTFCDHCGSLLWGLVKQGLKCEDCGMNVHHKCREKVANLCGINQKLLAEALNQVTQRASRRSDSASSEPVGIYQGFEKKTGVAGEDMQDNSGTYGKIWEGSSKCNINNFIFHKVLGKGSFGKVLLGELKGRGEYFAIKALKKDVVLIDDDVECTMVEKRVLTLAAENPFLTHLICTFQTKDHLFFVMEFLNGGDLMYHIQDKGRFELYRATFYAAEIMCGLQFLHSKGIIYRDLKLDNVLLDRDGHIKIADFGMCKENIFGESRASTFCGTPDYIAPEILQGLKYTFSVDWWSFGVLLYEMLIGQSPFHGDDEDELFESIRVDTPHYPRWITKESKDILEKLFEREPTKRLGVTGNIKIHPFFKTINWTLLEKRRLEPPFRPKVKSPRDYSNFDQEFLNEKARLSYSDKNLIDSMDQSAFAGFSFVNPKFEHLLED

CC(=O)c1c(O)c(C)c(O)c(Cc2c(O)c3c(c(C(=O)/C=C/c4ccccc4)c2O)OC(C)(C)C=C3)c1O [rottlerin]
IC50: 200 nM

From PMC3527126 (Endocrine-related cancer, 2011)
